# Test system: 616215-338-R-J1-PDC complex spheroid viability
# Assay: Anticancer human tumor 616215-338-R-J1-PDC patient-derived colon adenocarcinoma cell line growth inhibition [RAS]
# Conditions: for IC50: curve of first compound; for viability, T/C: stronger effect = lower value
# Summary of the method: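 Multi-cell-type spheroids: tumor cells plus HUVEC endothelial cells and mesenchymal stem cells. RAS-pathway inhibitors were combined with targeted agents, each dosed in half-log steps down from clinical Cmax, or from 10 microM when Cmax was unknown.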
# [1] = second compound 0.00316 µM, first compound 0.000949 µM
# [2] = second compound 0.00316 µM, first compound 0.003 µM
# [3] = second compound 0.00316 µM, first compound 0.00949 µM
# [4] = second compound 0.00316 µM, first compound 0.03 µM
# [5] = second compound 0.00316 µM, first compound 0.0949 µM
# [6] = second compound 0.00316 µM, first compound 0.3 µM
# [7] = second compound 0.01 µM, first compound 0.000949 µM
# [8] = second compound 0.01 µM, first compound 0.003 µM
# [9] = second compound 0.01 µM, first compound 0.00949 µM
# [10] = second compound 0.01 µM, first compound 0.03 µM
# [11] = second compound 0.01 µM, first compound 0.0949 µM
# [12] = second compound 0.01 µM, first compound 0.3 µM
# [13] = second compound 0.0316 µM, first compound 0.000949 µM
# [14] = second compound 0.0316 µM, first compound 0.003 µM
# [15] = second compound 0.0316 µM, first compound 0.00949 µM
# [16] = second compound 0.0316 µM, first compound 0.03 µM
# [17] = second compound 0.0316 µM, first compound 0.0949 µM
# [18] = second compound 0.0316 µM, first compound 0.3 µM
# [19] = second compound 0.1 µM, first compound 0.000949 µM
# [20] = second compound 0.1 µM, first compound 0.003 µM
# [21] = second compound 0.1 µM, first compound 0.00949 µM
# [22] = second compound 0.1 µM, first compound 0.03 µM
# [23] = second compound 0.1 µM, first compound 0.0949 µM
# [24] = second compound 0.1 µM, first compound 0.3 µM
# [25] = second compound 0.316 µM, first compound 0.000949 µM
# [26] = second compound 0.316 µM, first compound 0.003 µM
# [27] = second compound 0.316 µM, first compound 0.00949 µM
# [28] = second compound 0.316 µM, first compound 0.03 µM
# [29] = second compound 0.316 µM, first compound 0.0949 µM
# [30] = second compound 0.316 µM, first compound 0.3 µM
# [31] = second compound 1 µM, first compound 0.000949 µM
# [32] = second compound 1 µM, first compound 0.003 µM
# [33] = second compound 1 µM, first compound 0.00949 µM
# [34] = second compound 1 µM, first compound 0.03 µM
# [35] = second compound 1 µM, first compound 0.0949 µM
# [36] = second compound 1 µM, first compound 0.3 µM
# 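Note: spheroids exposed to agents for seven days before viability readout.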
# 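Throughout, for viability, T/C: 100% = DMSO vehicle control viability.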
smiles,measurement,setting,value
CC(=O)OC12COC1CC(O)C1(C)C(=O)C(O)C3=C(C)C(OC(=O)C(O)C(NC(=O)OC(C)(C)C)c4ccccc4)CC(O)(C(OC(=O)c4ccccc4)C21)C3(C)C (stereo unspecified) + C=CC(=O)N1CCN(c2nc(OCC3CCCN3C)nc3c(F)c(-c4nc(N)cc(C)c4C(F)(F)F)c(Cl)cc23)C(C)C1,IC50,second compound 0.00316 µM,< 0.0316 µM
same,IC50,second compound 0.01 µM,< 0.0316 µM
same,IC50,second compound 0.0316 µM,< 0.0316 µM
same,IC50,second compound 0.1 µM,< 0.0316 µM
same,IC50,second compound 0.316 µM,< 0.0316 µM
same,IC50,second compound 1 µM,< 0.0316 µM
same,"viability, T/C","second compound 0.00316 µM, first compound 0.0316 µM",28%
same,"viability, T/C","second compound 0.00316 µM, first compound 0.1 µM",22.4%
same,"viability, T/C","second compound 0.00316 µM, first compound 0.316 µM",18.4%
same,"viability, T/C","second compound 0.00316 µM, first compound 1 µM",18.6%
same,"viability, T/C","second compound 0.00316 µM, first compound 3.16 µM",18.3%
same,"viability, T/C","second compound 0.00316 µM, first compound 10 µM",24.5%
same,"viability, T/C","second compound 0.01 µM, first compound 0.0316 µM",25.3%
same,"viability, T/C","second compound 0.01 µM, first compound 0.1 µM",21.4%
same,"viability, T/C","second compound 0.01 µM, first compound 0.316 µM",17.5%
same,"viability, T/C","second compound 0.01 µM, first compound 1 µM",20.5%
same,"viability, T/C","second compound 0.01 µM, first compound 3.16 µM",18.7%
same,"viability, T/C","second compound 0.01 µM, first compound 10 µM",21.2%
same,"viability, T/C","second compound 0.0316 µM, first compound 0.0316 µM",21.3%
same,"viability, T/C","second compound 0.0316 µM, first compound 0.1 µM",23.9%
same,"viability, T/C","second compound 0.0316 µM, first compound 0.316 µM",16.5%
same,"viability, T/C","second compound 0.0316 µM, first compound 1 µM",18.5%
same,"viability, T/C","second compound 0.0316 µM, first compound 3.16 µM",20%
same,"viability, T/C","second compound 0.0316 µM, first compound 10 µM",21.9%
same,"viability, T/C","second compound 0.1 µM, first compound 0.0316 µM",24.3%
same,"viability, T/C","second compound 0.1 µM, first compound 0.1 µM",20.6%
same,"viability, T/C","second compound 0.1 µM, first compound 0.316 µM",20.6%
same,"viability, T/C","second compound 0.1 µM, first compound 1 µM",16.4%
same,"viability, T/C","second compound 0.1 µM, first compound 3.16 µM",21.1%
same,"viability, T/C","second compound 0.1 µM, first compound 10 µM",21%
same,"viability, T/C","second compound 0.316 µM, first compound 0.0316 µM",22.3%
same,"viability, T/C","second compound 0.316 µM, first compound 0.1 µM",22.3%
same,"viability, T/C","second compound 0.316 µM, first compound 0.316 µM",17.2%
same,"viability, T/C","second compound 0.316 µM, first compound 1 µM",18.5%
same,"viability, T/C","second compound 0.316 µM, first compound 3.16 µM",20.8%
same,"viability, T/C","second compound 0.316 µM, first compound 10 µM",23.9%
same,"viability, T/C","second compound 1 µM, first compound 0.0316 µM",22.4%
same,"viability, T/C","second compound 1 µM, first compound 0.1 µM",20.4%
same,"viability, T/C","second compound 1 µM, first compound 0.316 µM",18.7%
same,"viability, T/C","second compound 1 µM, first compound 1 µM",17.3%
same,"viability, T/C","second compound 1 µM, first compound 3.16 µM",23%
same,"viability, T/C","second compound 1 µM, first compound 10 µM",24.8%
CC1(C)CCC(Nc2ncc(C(F)(F)F)c(-c3c[nH]c4c(P(C)(C)=O)c(C#N)ccc34)n2)CN1 (stereo unspecified) + C=CC(=O)N1CCN(c2nc(OCC3CCCN3C)nc3c(F)c(-c4nc(N)cc(C)c4C(F)(F)F)c(Cl)cc23)C(C)C1,IC50,second compound 0.00316 µM,0.0128 µM
same,IC50,second compound 0.01 µM,0.0118 µM
same,IC50,second compound 0.0316 µM,0.0151 µM
same,IC50,second compound 0.1 µM,0.0161 µM
same,IC50,second compound 0.316 µM,0.0161 µM
same,IC50,second compound 1 µM,0.00899 µM
same,"viability, T/C",[1],103%
same,"viability, T/C",[2],102%
same,"viability, T/C",[3],56.7%
same,"viability, T/C",[4],33.5%
same,"viability, T/C",[5],25.2%
same,"viability, T/C",[6],28.3%
same,"viability, T/C",[7],109%
same,"viability, T/C",[8],97.8%
same,"viability, T/C",[9],54%
same,"viability, T/C",[10],32%
same,"viability, T/C",[11],30.2%
same,"viability, T/C",[12],25.7%
same,"viability, T/C",[13],103%
same,"viability, T/C",[14],108%
same,"viability, T/C",[15],62.3%
same,"viability, T/C",[16],35.4%
same,"viability, T/C",[17],29.2%
same,"viability, T/C",[18],31%
same,"viability, T/C",[19],106%
same,"viability, T/C",[20],101%
same,"viability, T/C",[21],64%
same,"viability, T/C",[22],33.8%
same,"viability, T/C",[23],27.8%
same,"viability, T/C",[24],27.6%
same,"viability, T/C",[25],102%
same,"viability, T/C",[26],97.3%
same,"viability, T/C",[27],61.9%
same,"viability, T/C",[28],36.6%
same,"viability, T/C",[29],29.1%
same,"viability, T/C",[30],28.7%
same,"viability, T/C",[31],99.7%
same,"viability, T/C",[32],94.1%
same,"viability, T/C",[33],47.7%
same,"viability, T/C",[34],33.8%
same,"viability, T/C",[35],34.7%
same,"viability, T/C",[36],28.4%
CCc1c2c(nc3ccc(O)cc13)-c1cc3c(c(=O)n1C2)COC(=O)[C@]3(O)CC + C=CC(=O)N1CCN(c2nc(OCC3CCCN3C)nc3c(F)c(-c4nc(N)cc(C)c4C(F)(F)F)c(Cl)cc23)C(C)C1,IC50,second compound 0.00316 µM,0.00893 µM
same,IC50,second compound 0.01 µM,0.00871 µM
same,IC50,second compound 0.0316 µM,0.0138 µM
same,IC50,second compound 0.1 µM,0.00938 µM
same,IC50,second compound 0.316 µM,0.0141 µM
same,IC50,second compound 1 µM,0.00832 µM
same,"viability, T/C",[1],98%
same,"viability, T/C",[2],103%
same,"viability, T/C",[3],47.2%
same,"viability, T/C",[4],27%
same,"viability, T/C",[5],20.6%
same,"viability, T/C",[6],16.9%
same,"viability, T/C",[7],99.3%
same,"viability, T/C",[8],106%
same,"viability, T/C",[9],45.8%
same,"viability, T/C",[10],30.2%
same,"viability, T/C",[11],23.6%
same,"viability, T/C",[12],17.6%
same,"viability, T/C",[13],107%
same,"viability, T/C",[14],115%
same,"viability, T/C",[15],59.9%
same,"viability, T/C",[16],32.5%
same,"viability, T/C",[17],18.4%
same,"viability, T/C",[18],14.9%
same,"viability, T/C",[19],112%
same,"viability, T/C",[20],109%
same,"viability, T/C",[21],48.5%
same,"viability, T/C",[22],29.4%
same,"viability, T/C",[23],20.1%
same,"viability, T/C",[24],16.5%
same,"viability, T/C",[25],110%
same,"viability, T/C",[26],98.1%
same,"viability, T/C",[27],57.7%
same,"viability, T/C",[28],32.4%
same,"viability, T/C",[29],16.3%
same,"viability, T/C",[30],12.8%
same,"viability, T/C",[31],106%
same,"viability, T/C",[32],110%
same,"viability, T/C",[33],42.5%
same,"viability, T/C",[34],28.2%
same,"viability, T/C",[35],22.9%
same,"viability, T/C",[36],15.4%
